Experimental data reported in patent US11065227B2, “Use of cannabinoids in the treatment of multiple myeloma” (GW Research Limited, priority 2016, dated 2021).
Where two headings read alike, the source gives them in different places.

Tests used:
[1] = test system: β5i subunit in U266 and RPMI cell lines; experiment: β5i mRNA by qRT-PCR after IFN-γ; format: cell-based; conditions: after 24 h IFN-γ (100 U/ml); 12.5 μM; respect to IFN-γ alone; FIG. 6A
[2] = test system: RPMI cell line; experiment: MTT cell viability assay, RPMI
Method: (§1) U266 and RPM18226 (RPMI) MM cell lines were purchased from ATCC (LGC Standards, Milan, IT). Cell authentication was performed by IST (Genova, Italy). Cell lines were cultured in RPMI1640 medium (Lonza, Milan, IT) supplemented with 10% foetal bovine serum (FBS), 2 mM L-glutamine, 100 IU/ml penicillin, 100 μg/ml streptomycin and 1 mM sodium pyruvate. Cell lines were maintained at 37° C. with 5% CO2 and 95% humidity.
(§2) U266 and RPMI cell lines (4×10^4 cells/ml) were seeded in 96-well plates, in a final volume of 100 μl/well. After 1 day of incubation, compounds or vehicles were added. At least four replicates were used for each treatment.
(§3) At the indicated time point, cell viability was assessed by adding 0.8 mg/ml of 3-[4,5-dimethylthiazol-2-yl]-2,5 diphenyl tetrazolium bromide (MTT) (Sigma Aldrich) to the media. […]
(§4) The absorbance of the samples against a background control (medium alone) was measured at 570 nm using an ELISA reader microliter plate (BioTek Instruments, Winooski, Vt., USA). Synergistic activity of the THC-CBD combinations was determined by the isobologram and combination index (CI) methods (CompuSyn Software, ComboSyn, Inc. Paramus, N J 2007). The CI was used to express synergism (CI<1), additivity (CI=1) or antagonism (CI>1) and was calculated according to the standard isobologram equation (Chou, 2006).

[3] = test system: U266 and RPMI cell lines; experiment: Cell migration assay (SDF-1, eCyPA chemotaxis); format: cell-based; conditions: 24 h treatment; single and in combination; FIG. 8C
[4] = test system: RPMI; conditions: Morelli et al. 2014; cited from earlier work
[5] = test system: LC3-II/LC3-1 and p62 in U266 and RPMI cell lines; experiment: Western blot of autophagy markers LC3 and p62; format: cell-based; conditions: 12.5 μM; 24 h of treatment; FIG. 4A
Method: (§5) U266 and RPMI cell lines were lysed in buffer containing protease inhibitor cocktail (Sigma Aldrich). Lysates were resolved by sodium dodecyl sulphate polyacrylamide gel (8-14%) and transferred onto Hybond-C extra membranes (GE Healthcare, Munich, Germany). Non-specific binding sites were blocked with 5% low-fat dry milk in phosphate-buffered saline 0.1% Tween 20 for 1 h.
(§6) Blots were incubated with the primary Abs: anti-iβ5 subunit (1:1000, Cell Signalling, Denver, Colo., USA), rabbit anti-LC3 (2 μg/ml, Novus Biologicals, Littleton, Colo., USA), rabbit anti-caspase-3 (1:1000, Cell Signalling), rabbit anti-p62 (1:1000, Cell Signalling), rabbit anti-H2AX (1:1000, Cell Signalling) and mouse anti-glyceraldehydes-3-phosphate dehydrogenase (GAPDH, 1:3000, OriGene, Rockville, Md., USA) Abs overnight and then incubated with their respective HRP-conjugated anti-mouse and anti-rabbit (1:2000, Cell Signalling) Abs for 1 h. The detection was performed using the LiteAblot PLUS or the LiteAblot TURBO (EuroClone, Milano, Italy) kits, and densitometric analysis was carried out by a Chemidoc using the Quantity One software (Bio-Rad, Hercules, Calif., USA).
These experiments investigated if the increase in sub-G1 cell accumulation by THC-CBD combination treatment was due to an autophagic-cell death process. […]

[6] = test system: U266 cell line; experiment: MTT cell viability assay, U266; conditions: Homo sapiens
Method: as §1, §2, §3, §4

[7] = test system: γ-H2AX (H2AX) in U266 and RPMI cell lines; experiment: Western blot of γ-H2AX; format: cell-based; conditions: 24 h post-treatments; both cell lines; FIG. 5C
Method: as §5, §6
The presence of γ-H2AX (H2AX), a phosphorylated variant of histone 2A that is associated with DNA double-strand breaks was investigated.

[8] = test system: CXCR4 and CD147 in U266 and RPMI cell lines; experiment: CXCR4 and CD147 expression by qRT-PCR; format: cell-based; conditions: alone and in combination; qRT-PCR and FACS; MM cell lines
[9] = test system: β5i subunit in U266 and RPMI cell lines; experiment: β5i precursor and mature form by western blot after IFN-γ; format: cell-based; conditions: both cell lines, FIG. 6B
Method: as §5, §6
The potential role of the combination of THC-CBD in regulating the β5i subunit was investigated. U266 and RPMI cell lines were treated with CBD and THC, after 24 h exposure to IFN-γ (100 U/ml).

[10] = test system: U266; conditions: Morelli et al. 2014; cited from earlier work
[11] = test system: U266 cell line; conditions: Morelli et al. 2014, read-out: IC50, reducing cell viability; cited from earlier work
[12] = test system: U266 and RPMI cell lines; experiment: MTT cell viability assay, statements for both MM cell lines; conditions: for CB2 receptor dependence of cytotoxic effect: pre-treatment with 20 μM AM630 (CB2 antagonist), FIG. 2
Method: as §1, §2
At the indicated time point, cell viability was assessed by adding 0.8 mg/ml of 3-[4,5-dimethylthiazol-2-yl]-2,5 diphenyl tetrazolium bromide (MTT) (Sigma Aldrich) to the media. After 3 h, the plates were centrifuged, the supernatant was removed, and the pellet was solubilized with 100 μl/well DMSO.
as §4

[13] = test system: RPMI cell line; conditions: Morelli et al. 2014, read-out: IC50, reducing cell viability; cited from earlier work
[14] = test system: U266 and RPMI cell lines; experiment: Cell cycle analysis by PI staining and FACS, both MM cell lines; format: cell-based; conditions: 12.5 μM, vs control, FIG. 3

SMILES | β5i expression level (mRNA) induced by IFN-γ [1] | cytotoxicity at 12.5 µM ([2]; read-out: decrease in cell viability) | SDF-1-, eCyPA- and SDF-1/eCyPA-mediated chemotaxis compared with vehicle-treated cells [3] | blocking cell cycle in GO/G1 phase [4] | LC3-II/LC3-1 ratio [5] | cytotoxicity at 12.5 µM ([6]; U-266, read-out: decrease in cell viability) | levels of the phosphorylated form of H2AX [7] | expression of CXCR4 and CD147 chemotactic receptors [8] | expression of precursor and mature form of β5i (protein) [9] | blocking cell cycle in GO/G1 phase [10] | IC50 [11] | cytotoxic effects after pre-treatment with BAF1 [12] | CB2 receptor dependence of cytotoxic effect [12] | IC50 [13] | IC50 ([2]; 72 h, read-out: IC50, cell viability) | accumulation in sub-G1 phase (hypodiploid DNA) ([14]; 48 h post-treatment) | cell accumulation in G1 phase ([14]; starting from 24 h post-treatment) | IC50 ([6]; U-266, 72 h, read-out: IC50, cell viability) | cell viability ([12]; presence or absence of IFN-γ, 72 h post-treatment, data not shown)
C=C(C)[C@@H]1CCC(C)=C[C@H]1c1c(O)cc(CCCCC)cc1O [CBD, Cannabidiol] | low effects | 20% | reduced | 42% | slight increase | 20% | increase levels | reduce the expression | low efficacy | 38% | 19.8 µM | reversed | not CB2 receptors dependent | 22.4 µM |  |  |  |  | 
CCCCCc1cc(O)c2c(c1)OC(C)(C)[C@@H]1CCC(C)=C[C@@H]21 [THC, Tetrahydrocannabinol] | low effects |  | reduced |  | no effect |  | increase levels | reduce the expression | low efficacy |  |  |  | not CB2 receptors dependent |  | 30.8 µM | accumulation in sub-G1 phase | induce cell accumulation in G1 phase | 39.5 µM | 
CC(C)C[C@H](NC(=O)[C@H](CCc1ccccc1)NC(=O)CN1CCOCC1)C(=O)N[C@@H](Cc1ccccc1)C(=O)N[C@@H](CC(C)C)C(=O)[C@@]1(C)CO1 [CFZ, carfilzomib] |  |  | reduced |  |  |  |  | reduce the expression |  |  |  |  |  |  |  |  |  |  | reduced cell viability
